For 17 molecules, T/C results are on record in PubChem BioAssay AID248 (DTP/NCI, 2004).

The structures appear in SMILES notation. Several values for one entry are separate records, joined by “and”; a condition that tells them apart may be missing. Equal entries are not always repeated. Inconclusive results and toxic doses are left out.

The test has as its system L1210 leukemia ip in BDF1 mice, survival T/C. Nature of the test: NCI In Vivo Anticancer Drug Screen. Data for tumor model L1210 Leukemia (intraperitoneal) in B6D2F1 (BDF1) mice. The note with it: endpoint: mean survival time, higher = longer survival. The method in brief:
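Ratio derived from survival: compound-dosed mice over vehicle-dosed mice, all bearing a transplantable tumor.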

[1] abbreviates: dose: 100.0 mg/kg/injection, schedule: Q04DX002 (ip), vehicle: saline with Tween-80.
The mark [2] stands for this setting: dose: 100.0 mg/kg/injection, schedule: Q01DX009 (ip), vehicle: saline with Tween-80.
Where [3] appears, read: dose: 100.0 mg/kg/injection, schedule: Q04DX003 (ip), vehicle: saline with Tween-80.
[4] abbreviates: dose: 200.0 mg/kg/injection, schedule: Q01DX009 (ip), vehicle: saline with Tween-80.
Where [5] appears, read: dose: 200.0 mg/kg/injection, schedule: Q04DX003 (ip), vehicle: saline with Tween-80.
The mark [6] stands for this setting: dose: 400.0 mg/kg/injection, schedule: Q04DX003 (ip), vehicle: saline with Tween-80.
The mark [7] stands for this setting: dose: 50.0 mg/kg/injection, schedule: Q01DX009 (ip), vehicle: saline sonified.

`O=NN(CCCl)C(=O)NC1CCC(CC(=O)O)CC1` (stereo unspecified): the T/C reads like this: (dose: 3.5 mg/kg/injection, schedule: Q01DX001 (ip), vehicle: Klucel (hydroxypropylcellulose) (HPC)) 114 % of control; (dose: 5.3 mg/kg/injection, schedule: Q01DX001 (ip), vehicle: Klucel (hydroxypropylcellulose) (HPC)) 171 % of control; (dose: 12.0 mg/kg/injection, schedule: Q01DX001 (ip), vehicle: Klucel (hydroxypropylcellulose) (HPC)) 235 % of control and 536 % of control; (dose: 15.0 mg/kg/injection, schedule: Q01DX001 (ip), vehicle: carboxymethylcellulose (CMC)) 151 % of control and 178 % of control; (dose: 18.0 mg/kg/injection, schedule: Q01DX001 (ip), vehicle: Klucel (hydroxypropylcellulose) (HPC)) 352 % of control and 377 % of control; (dose: 18.0 mg/kg/injection, schedule: Q01DX001 (ip), vehicle: carboxymethylcellulose (CMC)) 403 % of control. Also, the T/C is 336 % of control and 351 % of control (dose: 23.0 mg/kg/injection, schedule: Q01DX001 (ip), vehicle: carboxymethylcellulose (CMC)); 352 % of control and 439 % of control (dose: 26.0 mg/kg/injection, schedule: Q01DX001 (ip), vehicle: Klucel (hydroxypropylcellulose) (HPC)); 454 % of control (dose: 26.0 mg/kg/injection, schedule: Q01DX001 (ip), vehicle: carboxymethylcellulose (CMC)); 445 % of control and 454 % of control (dose: 34.0 mg/kg/injection, schedule: Q01DX001 (ip), vehicle: carboxymethylcellulose (CMC)); 319 % of control and 381 % of control (dose: 40.0 mg/kg/injection, schedule: Q01DX001 (ip), vehicle: Klucel (hydroxypropylcellulose) (HPC)); 418 % of control (dose: 40.0 mg/kg/injection, schedule: Q01DX001 (ip), vehicle: carboxymethylcellulose (CMC)). Moreover, the T/C is 413 % of control and 476 % of control (dose: 51.0 mg/kg/injection, schedule: Q01DX001 (ip), vehicle: carboxymethylcellulose (CMC)); 111 % of control and 202 % of control (dose: 60.0 mg/kg/injection, schedule: Q01DX001 (ip), vehicle: Klucel (hydroxypropylcellulose) (HPC)); 102 % of control (dose: 60.0 mg/kg/injection, schedule: Q01DX001 (ip), vehicle: carboxymethylcellulose (CMC)); 175 % of control and 258 % of control (dose: 77.0 mg/kg/injection, schedule: Q01DX001 (ip), vehicle: carboxymethylcellulose (CMC)).

Take `O=C(O)c1c(-c2nccc3ccccc23)[nH]c(-c2ccccc2)c1S(=O)(=O)O`: the T/C (dose: 75.0 mg/kg/injection, schedule: Q01DX001 (ip), vehicle: saline) was 103 % of control and the T/C (dose: 150.0 mg/kg/injection, schedule: Q01DX001 (ip), vehicle: saline) is 101 % of control.

As for `CCOc1ccc(NC(=S)NC2CCCCC2)cc1`, the T/C is, setting by setting: (dose: 100.0 mg/kg/injection, schedule: Q01DX009 (ip), vehicle: Klucel (hydroxypropylcellulose) (HPC)) 106 % of control; (dose: 200.0 mg/kg/injection, schedule: Q01DX009 (ip), vehicle: Klucel (hydroxypropylcellulose) (HPC)) 95 % of control; (dose: 400.0 mg/kg/injection, schedule: Q01DX009 (ip), vehicle: Klucel (hydroxypropylcellulose) (HPC)) 96 % of control.

Consider `CC(=O)Nc1ccc(/C=N/NC(=O)c2cccc3ccccc23)cc1`, for which, under “dose: 100.0 mg/kg/injection, schedule: Q01DX001 (ip), vehicle: saline”, the T/C was 86 % of control.

Consider `FC(F)(F)c1cccc(C(OCCN2CCCC2)c2ccccc2)c1` (stereo unspecified), for which the T/C runs as follows: (dose: 6.25 mg/kg/injection, schedule: Q01DX009 (ip), vehicle: saline) 92 % of control; (dose: 12.5 mg/kg/injection, schedule: Q01DX009 (ip), vehicle: saline) 95 % of control; (dose: 25.0 mg/kg/injection, schedule: Q01DX009 (ip), vehicle: saline) 110 % of control.

`CC1=CC(=N\S(=O)(=O)c2ccccc2)/c2ccccc2/C1=N/S(=O)(=O)c1ccccc1`: the T/C is 92 % of control (dose: 25.0 mg/kg/injection, schedule: Q01DX001 (ip), vehicle: saline sonified); 95 % of control (dose: 50.0 mg/kg/injection, schedule: Q01DX001 (ip), vehicle: saline sonified); 95 % of control (dose: 100.0 mg/kg/injection, schedule: Q01DX001 (ip), vehicle: saline sonified).

As for `c1coc(-c2cnc3ccccc3n2)c1`, the T/C runs as follows: (dose: 75.0 mg/kg/injection, schedule: Q01DX001 (ip), vehicle: carboxymethylcellulose (CMC)) 109 % of control; (dose: 150.0 mg/kg/injection, schedule: Q01DX001 (ip), vehicle: carboxymethylcellulose (CMC)) 91 % of control.

On to `C[P+](c1ccccc1)(c1ccc(Cl)cc1)c1ccc(Cl)cc1`, for which the T/C runs as follows: (dose: 25.0 mg/kg/injection, schedule: Q04DX002 (ip), vehicle: saline) 100 % of control; (dose: 50.0 mg/kg/injection, schedule: Q04DX002 (ip), vehicle: saline) 95 % of control; under setting [1], 116 % of control.

In the case of `CCOC(=O)CCN(CCC(=O)OCC)C(C)C`, the T/C reads like this: under setting [2], 100 % of control; under setting [3], 101 % of control; under setting [4], 90 % of control; under setting [5], 101 % of control; (dose: 400.0 mg/kg/injection, schedule: Q01DX009 (ip), vehicle: saline with Tween-80) 98 % of control; under setting [6], 101 % of control.

As for `O=C1OC(c2ccccc2)(c2ccccc2)c2sccc21`, the T/C is, setting by setting: (dose: 50.0 mg/kg/injection, schedule: Q01DX009 (ip), vehicle: saline with Tween-80) 91 % of control; under setting [2], 102 % of control; under setting [4], 94 % of control.

For `COc1cccc(/C(C)=N\Nc2ccc([N+](=O)[O-])cc2[N+](=O)[O-])c1OC`, the T/C runs as follows: (dose: 50.0 mg/kg/injection, schedule: Q01DX009 (ip), vehicle: saline) 92 % of control; (dose: 100.0 mg/kg/injection, schedule: Q01DX009 (ip), vehicle: saline) 90 % of control; under setting [3], 94 % of control and 96 % of control; under setting [5], 87 % of control; under setting [6], 86 % of control and 92 % of control.

`O=C(C[n+]1cccc(C(=O)NCc2ccccc2)c1)NCc1ccccc1`: the T/C runs as follows: (dose: 25.0 mg/kg/injection, schedule: Q01DX009 (ip), vehicle: saline sonified) 100 % of control; under setting [7], 97 % of control; (dose: 110.0 mg/kg/injection, schedule: Q01DX009 (ip), vehicle: saline sonified) 95 % of control.

`COC(=O)CSc1nc2ccccc2[nH]1`: the T/C is 104 % of control (dose: 100.0 mg/kg/injection, schedule: Q04DX002 (ip), vehicle: Klucel (hydroxypropylcellulose) (HPC)); 100 % of control (dose: 200.0 mg/kg/injection, schedule: Q04DX002 (ip), vehicle: Klucel (hydroxypropylcellulose) (HPC)); 100 % of control (dose: 400.0 mg/kg/injection, schedule: Q04DX002 (ip), vehicle: Klucel (hydroxypropylcellulose) (HPC)).

On to `CC1C(C)(C)C1(Cl)Cl` (stereo unspecified), for which the T/C reads like this: under setting [7], 92 % of control; (dose: 100.0 mg/kg/injection, schedule: Q01DX009 (ip), vehicle: saline sonified) 92 % of control; (dose: 200.0 mg/kg/injection, schedule: Q01DX009 (ip), vehicle: saline sonified) 101 % of control.

As to `CC1=NNC(=O)C1Br` (stereo unspecified), the T/C (dose: 100.0 mg/kg/injection, schedule: Q01DX001 (ip), vehicle: carboxymethylcellulose (CMC)) was 105 % of control; the T/C (dose: 200.0 mg/kg/injection, schedule: Q01DX001 (ip), vehicle: carboxymethylcellulose (CMC)) was 102 % of control; the T/C (dose: 400.0 mg/kg/injection, schedule: Q01DX001 (ip), vehicle: carboxymethylcellulose (CMC)) was 100 % of control.

Take `CC[N+](CC)(CC)CC(=O)c1ccc(Br)cc1`: the T/C is 97 % of control (dose: 25.0 mg/kg/injection, schedule: Q04DX002 (ip), vehicle: saline with Tween-80); 97 % of control (dose: 50.0 mg/kg/injection, schedule: Q04DX002 (ip), vehicle: saline with Tween-80); 87 % of control and 92 % of control under setting [1].

Regarding `NC(N)=N/N=C/c1ccc(Cl)c([N+](=O)[O-])c1`, the T/C is, setting by setting: (dose: 6.0 mg/kg/injection, schedule: Q01DX Z (oral), vehicle: methylcellulose (MC)) 93 % of control; (dose: 15.0 mg/kg/injection, schedule: Q01DX Z (oral), vehicle: methylcellulose (MC)) 115 % of control; (dose: 30.0 mg/kg/injection, schedule: Q01DX Z (oral), vehicle: methylcellulose (MC)) 109 % of control; (dose: 120.0 mg/kg/injection, schedule: Q01DX Z (oral), vehicle: methylcellulose (MC)) 96 % of control.
